Some results are limits rather than exact numbers.

This passage reports IC50 results from patent US20240343704A1, “HALO-SUBSTITUTED AMINO PYRIDINE COMPOUNDS AS INHIBITORS OF THE HAEMATOPOIETIC PROGENITOR KINASE 1 (HPK1)” (priority 2021, published 2024).

Assay [1] deals with T1, Recombinant (1-346) HPK1 (h) (Homo sapiens, UniProt Q92918).
T1 construct: Recombinant (1-346) HPK1 (h) is incubated with 8 mM MOPS pH 7.0
T1 sequence (Q92918 1-346): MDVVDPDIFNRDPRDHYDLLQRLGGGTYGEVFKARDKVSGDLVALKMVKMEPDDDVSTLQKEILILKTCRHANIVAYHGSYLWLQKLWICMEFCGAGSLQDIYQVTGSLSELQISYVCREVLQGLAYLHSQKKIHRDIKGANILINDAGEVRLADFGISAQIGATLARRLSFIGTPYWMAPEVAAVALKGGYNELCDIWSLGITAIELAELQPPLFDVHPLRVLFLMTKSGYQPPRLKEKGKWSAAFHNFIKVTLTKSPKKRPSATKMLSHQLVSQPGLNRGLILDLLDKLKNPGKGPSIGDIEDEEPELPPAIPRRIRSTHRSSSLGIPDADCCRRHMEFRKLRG
Kind of assay: HPK1 Human STE Kinase Enzymatic Radiometric Assay. The format is biochemical. To be noted: read-out: HPK1 IC50 nM Range*. The procedure:
A stock solution of 10 mM of test compound is prepared in DMSO. The compound plate was prepared by 3-fold and 9-point serial dilutions. […] The reaction is initiated by The addition of the Mg/ATP mix. After incubation for 40 minutes at RT, the reaction is stopped by the addition of phosphoric acid to a concentration of 0.5%.

In the next assay the target is Lck (h) (Homo sapiens, UniProt P06239). Kind of assay: Lck Human  Kinase Enzymatic Radiometric Assay. It is filed as biochemical. To be noted: read-out: Lck IC50 nM Range*. The method in brief:
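Substrate 33P-incorporation measured by scintillation counting after spotting on P30 filtermat and phosphoric acid washes. Human Lck reacted 40 min at RT in 50 mM Tris pH 7.5 with 10 mM MgAcetate, [gamma-33P]-ATP, 250 uM Cdc2 peptide, 0.1 mM EGTA and 0.1 mM Na3VO4.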

Sequence of Lck (h) (P06239 whole entry): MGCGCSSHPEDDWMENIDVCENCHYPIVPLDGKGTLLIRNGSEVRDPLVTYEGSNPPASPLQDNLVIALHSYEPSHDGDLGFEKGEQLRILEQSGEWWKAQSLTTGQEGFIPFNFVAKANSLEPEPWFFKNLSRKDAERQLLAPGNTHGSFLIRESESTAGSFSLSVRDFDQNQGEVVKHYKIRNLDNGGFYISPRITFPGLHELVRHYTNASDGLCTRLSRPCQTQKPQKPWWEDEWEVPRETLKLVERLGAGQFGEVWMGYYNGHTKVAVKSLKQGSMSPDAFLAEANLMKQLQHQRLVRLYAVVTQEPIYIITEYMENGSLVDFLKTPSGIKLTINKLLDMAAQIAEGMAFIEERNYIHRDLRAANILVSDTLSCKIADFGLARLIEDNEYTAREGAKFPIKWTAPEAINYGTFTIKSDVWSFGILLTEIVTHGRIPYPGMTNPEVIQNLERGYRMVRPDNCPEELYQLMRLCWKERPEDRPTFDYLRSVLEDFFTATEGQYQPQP

For `CC(C)N1CCOC(c2ccc(-c3cc(-c4ccc5c(c4)CCNC5=O)c(N)nc3F)cc2)C1` (centres unmarked) [I-105, 6-(2-amino-6-fluoro-5-(4-(4-isopropylmorpholin-2-yl)phenyl)pyridin-3-yl)-3,4-dihydroisoquinolin-1(2H)-one], the half-inhibitory concentration (IC50) is 0.1 to 10 nM in assay [1] and above 1000 nM on Lck (h).

On to `CC1CN(c2ccc(-c3cc(-c4ccc5c(c4)CCNC5=O)c(N)nc3F)cc2)CCN1C` (centres unmarked) [I-88, 6-(2-amino-5-(4-(3,4-dimethylpiperazin-1-yl)phenyl)-6-fluoropyridin-3-yl)-3,4-dihydroisoquinolin-1(2H)-one], for which the results for the IC50 (in assay [1]; at Lck (h)) were 0.1 to 10 nM and above 1000 nM, respectively.

`CC(C)(C)OC(=O)N1CCC2(CC1)CC(=O)c1cc(-c3cc(-c4ccc5c(c4)CCNC5=O)c(N)nc3F)ccc1O2` [I-174, tert-butyl 6-(6-amino-2-fluoro-5-(1-oxo-1,2,3,4-tetrahydroisoquinolin-6-yl)pyridin-3-yl)-4-oxospiro[chromane-2,4′-piperidine]-1′-carboxylate]: the half-maximal inhibitory concentration (IC50) was 11 to 100 nM in assay [1] and above 1000 nM at Lck (h).

Regarding `Cc1nc2cc(-c3cc(-c4ccc(N5CCN(C(C)C)CC5)cc4)c(F)nc3N)cc(F)c2c(=O)[nH]1` [I-414, 7-(2-amino-6-fluoro-5-(4-(4-isopropylpiperazin-1-yl)phenyl)pyridin-3-yl)-5-fluoro-2-methylquinazolin-4(3H)-one], the results for the IC50 (in assay [1]; at Lck (h)) were 0.1 to 10 nM and above 1000 nM, respectively.

As for `C[C@@H]1CCCN1c1ccc(-c2cc(-c3ccc4c(c3)CCNC4=O)c(N)nc2F)cc1` [I-46, (R)-6-(2-amino-6-fluoro-5-(4-(2-methylpyrrolidin-1-yl)phenyl)pyridin-3-yl)-3,4-dihydroisoquinolin-1(2H)-one], the IC50 in assay [1] was 11 to 100 nM; at Lck (h) it was above 1000 nM.

`Nc1nc(F)c(-c2ccc(N3CCNCC3)c(C(F)(F)F)c2)cc1-c1ccc2c(c1)CCNC2=O` [I-185, 6-(2-amino-6-fluoro-5-(4-(piperazin-1-yl)-3-(trifluoromethyl)phenyl)pyridin-3-yl)-3,4-dihydroisoquinolin-1(2H)-one]: the IC50 in assay [1] is 0.1 to 10 nM; on Lck (h), above 1000 nM.

With `CCN1CCC(c2ccc(-c3cc(-c4ccc5c(c4)CCNC5=O)c(N)nc3F)cc2)C1` (centres unmarked) [I-235, 6-(2-amino-5-(4-(1-ethylpyrrolidin-3-yl)phenyl)-6-fluoropyridin-3-yl)-3,4-dihydroisoquinolin-1(2H)-one], the IC50 in assay [1] was 0.1 to 10 nM; at Lck (h), above 1000 nM.

Consider `COCCN1CC=C(c2ccc(-c3cc(-c4ccc5c(c4)CCNC5=O)c(N)nc3F)cc2)CC1` [I-139, 6-(2-amino-6-fluoro-5-(4-(1-(2-methoxyethyl)-1,2,3,6-tetrahydropyridin-4-yl)phenyl)pyridin-3-yl)-3,4-dihydroisoquinolin-1(2H)-one], for which the IC50 in assay [1] was 0.1 to 10 nM; on Lck (h), above 1000 nM.

For the compound `Nc1nc(F)c(-c2ccc(N3CCS(=O)(=O)CC3)cc2)cc1-c1cc2c(cc1F)C(=O)NCC2` [I-346, 6-(2-amino-5-(4-(1,1-dioxidothiomorpholino)phenyl)-6-fluoropyridin-3-yl)-7-fluoro-3,4-dihydroisoquinolin-1(2H)-one], the IC50 is 0.1 to 10 nM in assay [1] and above 1000 nM at Lck (h).

With `CC(C)[C@H]1CN(c2ccc(-c3cc(-c4ccc5c(c4)CCNC5=O)c(N)nc3F)cc2)CCO1` [I-10, (S)-6-(2-amino-6-fluoro-5-(4-(2-isopropylmorpholino)phenyl)pyridin-3-yl)-3,4-dihydroisoquinolin-1(2H)-one], the figures for the concentration for half-maximal inhibition (IC50) (in assay [1]; at Lck (h)) were 11 to 100 nM and above 1000 nM, respectively.

With `CC(C)(C)OC(=O)N1CC=C(c2ccc(-c3cc(-c4ccc5c(c4)CCNC5=O)c(N)nc3F)cc2)CC1` [I-56, tert-butyl4-(4-(6-amino-2-fluoro-5-(1-oxo-1,2,3,4-tetrahydroisoquinolin-6-yl)pyridin-3-yl)phenyl)-3,6-dihydropyridine-1(2H)-carboxylate], the figures for the IC50 (in assay [1]; on Lck (h)) were 11 to 100 nM and above 1000 nM, respectively.

Regarding `Nc1nc(F)c(-c2ccc(OC3CCN(C(=O)C4CC4)CC3)cc2)cc1-c1ccc2c(c1)CCNC2=O` [I-203, 6-(2-amino-5-(4-((1-(cyclopropanecarbonyl)piperidin-4-yl)oxy)phenyl)-6-fluoropyridin-3-yl)-3,4-dihydroisoquinolin-1(2H)-one], the IC50 in assay [1] is 0.1 to 10 nM; at Lck (h) it was above 1000 nM.

Consider `CN1C[C@@H]2C[C@]2(c2ccc(-c3cc(-c4cc5c(cc4F)C(=O)NCC5)c(N)nc3F)cc2)C1` [I-344, 6-(2-amino-6-fluoro-5-(4-((1S,5R)-3-methyl-3-azabicyclo[3.1.0]hexan-1-yl)phenyl)pyridin-3-yl)-7-fluoro-3,4-dihydroisoquinolin-1(2H)-one], for which the IC50 in assay [1] is 0.1 to 10 nM; on Lck (h) it was above 1000 nM.

For the compound `CC(C)(C)OC(=O)N1CCN(c2ccc(-c3cc(-c4ccc5c(c4)CCNC5=O)c(N)nc3F)cc2C(F)(F)F)CC1` [I-177, tert-butyl 4-(4-(6-amino-2-fluoro-5-(1-oxo-1,2,3,4-tetrahydroisoquinolin-6-yl)pyridin-3-yl)-2-(trifluoromethyl)phenyl)piperazine-1-carboxylate], the IC50 in assay [1] is 101 to 1000 nM; on Lck (h), above 1000 nM.

As for `CC(=O)N1CC(Oc2ccc(-c3cc(-c4cc5c(cc4F)C(=O)NCC5)c(N)nc3F)cc2)C1` [I-341, 6-(5-(4-((1-acetylazetidin-3-yl)oxy)phenyl)-2-amino-6-fluoropyridin-3-yl)-7-fluoro-3,4-dihydroisoquinolin-1(2H)-one], the IC50 in assay [1] is 11 to 100 nM; at Lck (h), above 1000 nM.

As to `CN1C[C@H]2C[C@@]2(c2ccc(-c3cc(-c4cc(F)c5c(c4)CCNC5=O)c(N)nc3F)cc2)C1` [I-352, 6-(2-amino-6-fluoro-5-(4-((1R,5S)-3-methyl-3-azabicyclo[3.1.0]hexan-1-yl)phenyl)pyridin-3-yl)-8-fluoro-3,4-dihydroisoquinolin-1(2H)-one], the IC50 was 0.1 to 10 nM in assay [1] and above 1000 nM on Lck (h).

For the compound `Nc1nc(F)c(-c2ccc(N3CCN(CC(F)(F)F)CC3)cc2)cc1-c1cc2c(cc1F)C(=O)NCC2` [I-237, 6-(2-amino-6-fluoro-5-(4-(4-(2,2,2-trifluoroethyl)piperazin-1-yl)phenyl)pyridin-3-yl)-7-fluoro-3,4-dihydroisoquinolin-1(2H)-one], the IC50 in assay [1] was 0.1 to 10 nM; at Lck (h), above 1000 nM.

In the case of `Nc1ncc(-c2ccc(N3CCOCC3)cc2)c(F)c1-c1ccc2c(c1)CCNC2=O` [I-2, 6-(2-amino-4-fluoro-5-(4-morpholinophenyl)pyridin-3-yl)-3,4-dihydroisoquinolin-1(2H)-one], the concentration for half-maximal inhibition (IC50) is 11 to 100 nM in assay [1] and above 1000 nM on Lck (h).

For `CC(C)N1CCN(c2ccc(-c3cc(-c4ccc5c(=O)[nH]ncc5c4)c(N)nc3F)cc2)CC1` [I-363, 6-(2-amino-6-fluoro-5-(4-(4-isopropylpiperazin-1-yl)phenyl)pyridin-3-yl)phthalazin-1(2H)-one], the IC50 is 11 to 100 nM in assay [1] and above 1000 nM on Lck (h).

Regarding `Cc1nc2cc(-c3cc(-c4ccc(N5CCN(C(C)C)CC5)cc4)c(F)nc3N)ccc2c(=O)[nH]1` [I-409, 7-(2-amino-6-fluoro-5-(4-(4-isopropylpiperazin-1-yl)phenyl)pyridin-3-yl)-2-methylquinazolin-4(3H)-one], the IC50 in assay [1] is 0.1 to 10 nM; on Lck (h) it was above 1000 nM.

Turning to `CC(C)(O)CN1C[C@@H]2C[C@]2(c2ccc(-c3cc(-c4ccc5c(c4)CCNC5=O)c(N)nc3F)cc2)C1` [I-126, 6-(2-amino-6-fluoro-5-(4-((1S,5R)-3-(2-hydroxy-2-methylpropyl)-3-azabicyclo[3.1.0]hexan-1-yl)phenyl)pyridin-3-yl)-3,4-dihydroisoquinolin-1(2H)-one], the IC50 in assay [1] was 0.1 to 10 nM; at Lck (h), above 1000 nM.

Take `Nc1nc(F)c(-c2ccc(O[C@@H]3CCCNC3)cc2)cc1-c1cc2c(cc1F)C(=O)NCC2` [I-180, (R)-6-(2-amino-6-fluoro-5-(4-(piperidin-3-yloxy)phenyl)pyridin-3-yl)-7-fluoro-3,4-dihydroisoquinolin-1(2H)-one]: the IC50 in assay [1] was 11 to 100 nM; at Lck (h) it was above 1000 nM.

Turning to `CN1CCN(C(=O)c2cccc(-c3cc(-c4ccc5c(c4)CCNC5=O)c(N)nc3F)c2)CC1` [I-331, 6-(2-amino-6-fluoro-5-(3-(4-methylpiperazine-1-carbonyl)phenyl)pyridin-3-yl)-3,4-dihydroisoquinolin-1(2H)-one], the IC50 in assay [1] is 101 to 1000 nM; at Lck (h), above 1000 nM.

Regarding `Nc1nc(F)c(-c2ccc(C3=CCN(CC(F)F)C3)cc2)cc1-c1ccc2c(c1)CCNC2=O` [I-127, 6-(2-amino-5-(4-(1-(2,2-difluoroethyl)-2,5-dihydro-1H-pyrrol-3-yl)phenyl)-6-fluoropyridin-3-yl)-3,4-dihydroisoquinolin-1(2H)-one], the IC50 in assay [1] was 0.1 to 10 nM; at Lck (h), above 1000 nM.

On to `CC(C)N1CCN(c2ccc(-c3cc(-c4cc5c(cc4F)C(=O)NCC5)c(N)nc3F)cc2)CC1` [I-95, 6-(2-amino-6-fluoro-5-(4-(4-isopropylpiperazin-1-yl)phenyl)pyridin-3-yl)-7-fluoro-3,4-dihydroisoquinolin-1(2H)-one], for which the concentration for half-maximal inhibition (IC50) in assay [1] is 0.1 to 10 nM; at Lck (h), above 1000 nM.
